Data published in patent EP2934149B1, “C6-AZASPIRO IMINOTHIADIAZINE DIOXIDES AS BACE INHIBITORS” (Merck Sharp & Dohme Corp., priority 2012, dated 2014).
One block for each compound: values may come before it.

Key:
[1] = biological target: T1, purified human autoBACE-2 (Homo sapiens, UniProt Q9Y5Z0); experiment: BACE-2 Assay (BACE-HTRF assay); assay type: biochemical; conditions: Ki calculated from IC50 using the Cheng-Prusoff equation; QSY7-EISEVNLDAEFC-Eu-amide substrate 200 nM final, pH 5.0, 30°C; read-out: BACE2 Ki
T1 sequence (Q9Y5Z0 63-473 limits assumed): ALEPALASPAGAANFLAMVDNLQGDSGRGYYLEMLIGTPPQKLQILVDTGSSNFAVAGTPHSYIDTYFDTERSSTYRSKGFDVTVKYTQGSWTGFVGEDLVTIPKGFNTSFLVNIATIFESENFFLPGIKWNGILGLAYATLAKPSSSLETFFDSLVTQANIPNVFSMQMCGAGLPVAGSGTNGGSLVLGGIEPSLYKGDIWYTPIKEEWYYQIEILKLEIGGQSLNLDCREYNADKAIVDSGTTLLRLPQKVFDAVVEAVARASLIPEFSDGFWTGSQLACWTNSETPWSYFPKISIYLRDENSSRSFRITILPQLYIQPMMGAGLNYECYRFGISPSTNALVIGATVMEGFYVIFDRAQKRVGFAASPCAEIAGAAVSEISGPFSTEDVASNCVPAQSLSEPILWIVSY
Protocol: Inhibitor IC50's at purified human autoBACE-2 are determined in a time-resolved endpoint proteolysis assay that measures hydrolysis of the QSY7-[…]-Eu-amide FRET peptide substrate (BACE-HTRF assay). […] Inhibitor compounds, prepared at 3x the desired final concentration in 1x BACE assay buffer (20 mM sodium acetate pH 5.0,10% glycerol, 0.1% Brij-35) supplemented with 7.5% DMSO are pre-incubated with an equal volume of autoBACE-2 enzyme diluted in 1x BACE assay buffer (final enzyme concentration 1 nM) in black 384-well NUNC plates for 30 minutes at 30°C. […] DMSO is present at 5% final concentration in the assay. Following laser excitation of sample wells at 320 nm, the fluorescence signal at 620 nm is collected for 400 ms following a 50 µs delay on a RUBYstar HTRF plate reader (BMG Labtechnologies). Raw RFU data is normalized to maximum (1.0 nM BACE/DMSO) and minimum (no enzyme/DMSO) RFU values. […] The Ki values are calculated from the IC50 using the Cheng-Prusoff equation.

[2] = biological target: soluble human BACE1 catalytic domain (Homo sapiens, UniProt P56817); experiment: BACE1 HTRF FRET Assay; assay type: biochemical; conditions: Ki calculated from IC50 using the Cheng-Prusoff equation; QSY7-APPswe-Eu substrate 200 nM final, pH 5.0, 30° C
Protocol: A homogeneous time-resolved FRET assay can be used to determine IC50 values for inhibitors of the soluble human BACE1 catalytic domain. […] This substrate contains an N-terminal QSY7 moiety that serves as a quencher of the C-terminal Europium fluorophore (620nm Em). […] Inhibition of BACE1 cleavage of the QSY7-APP^swe-Eu substrate by inhibitors is manifested as a suppression of 620 nm fluorescence. […] The reactions are incubated at 30° C for 1.5 hours. The 620nm fluorescence is then read on a Rubystar HTRF plate reader (BMG Labtechnologies) using a 50 millisecond delay followed by a 400 millisecond acquisition time window. Inhibitor IC50 values are derived from non-linear regression analysis of concentration response curves.

Sequence of soluble human BACE1 catalytic domain (P56817 75-416 limits assumed): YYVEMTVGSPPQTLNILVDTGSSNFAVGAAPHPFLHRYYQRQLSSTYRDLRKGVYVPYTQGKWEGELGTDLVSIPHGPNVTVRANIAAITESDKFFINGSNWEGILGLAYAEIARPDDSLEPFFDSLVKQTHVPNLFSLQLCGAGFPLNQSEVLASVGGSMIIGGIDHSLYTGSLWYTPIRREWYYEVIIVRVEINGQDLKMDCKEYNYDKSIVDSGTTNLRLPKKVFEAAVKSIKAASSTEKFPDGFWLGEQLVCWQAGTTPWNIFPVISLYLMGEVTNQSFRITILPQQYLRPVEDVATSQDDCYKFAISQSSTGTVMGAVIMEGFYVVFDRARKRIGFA

Compound: CN1C(=N)N[C@](C)(c2cc(NC(=O)c3ccc(F)cn3)ccc2F)[C@]2(CCN(S(=O)(=O)CC(F)(F)F)C2)S1(=O)=O [Example 74]
Ki [1]: 4 nM
Ki [2]: 2 nM

Compound: COc1ccc(C(=O)Nc2ccc(F)c([C@@]3(C)NC(=N)N(C)S(=O)(=O)[C@@]34CCN(S(=O)(=O)c3ccc(F)cc3)C4)c2)nc1 [Example 58]
Ki [1]: 20 nM
Ki [2]: 3 nM

Compound: CN1C(=N)N[C@](C)(c2cc(NC(=O)c3ccc(F)cn3)ccc2F)[C@@]2(CCN(S(=O)(=O)C3CC3)C2)S1(=O)=O [Example 92]
Ki [1]: 29 nM
Ki [2]: 41 nM

Compound: CC(=O)N1CCC2(C1)[C@@](C)(c1cc(NC(=O)c3ccc(F)cn3)ccc1F)NC(=N)N(C)S2(=O)=O (stereo partly drawn) [Example 4]
Ki [1]: 9 nM
Ki [2]: 3.7 nM

Compound: CC(C)CS(=O)(=O)N1CC[C@]2(C1)[C@@](C)(c1cc(NC(=O)c3ccc(F)cn3)ccc1F)NC(=N)N(C)S2(=O)=O [Example 90]
Ki [1]: 29 nM
Ki [2]: 48 nM

Compound: CCS(=O)(=O)N1CC[C@]2(C1)[C@@](C)(c1cc(NC(=O)c3ccc(F)cn3)ccc1F)NC(=N)N(C)S2(=O)=O [Example 89]
Ki [1]: 41 nM
Ki [2]: 45 nM

Compound: CN1C(=N)N[C@](C)(c2cc(NC(=O)c3ccc(F)cn3)ccc2F)[C@]2(CCN(S(=O)(=O)c3ccc(F)cc3)C2)S1(=O)=O [Example 73]
Ki [1]: 10 nM
Ki [2]: 3 nM

Compound: CCS(=O)(=O)N1CC[C@@]2(C1)[C@@](C)(c1cc(NC(=O)c3ccc(F)cn3)ccc1F)NC(=N)N(C)S2(=O)=O [Example 76]
Ki [1]: 4 nM
Ki [2]: 2 nM

Compound: CN1C(=N)N[C@](C)(c2cc(NC(=O)c3ccc(F)cn3)ccc2F)[C@@]2(CCN(Cc3cocn3)C2)S1(=O)=O [Example 49]
Ki [1]: 21 nM
Ki [2]: 33 nM

Compound: CC(C)CC(=O)N1CCC2(C1)[C@@](C)(c1cc(NC(=O)c3ccc(F)cn3)ccc1F)NC(=N)N(C)S2(=O)=O (stereo partly drawn) [Example 7]
Ki [1]: 5.7 nM
Ki [2]: 2.8 nM

Compound: CN1C(=N)N[C@](C)(c2cc(NC(=O)c3ccc(F)cn3)ccc2F)[C@]2(CCN(S(=O)(=O)C3CCCC3)C2)S1(=O)=O [Example 84]
Ki [1]: 2 nM
Ki [2]: 2 nM

Next, values leading:

Ki [1]: 38 nM
Ki [2]: 6 nM
Compound: COc1ccc(C(=O)Nc2ccc(F)c([C@@]3(C)NC(=N)N(C)S(=O)(=O)[C@@]34CCN(S(=O)(=O)c3cn(C)cn3)C4)c2)nc1 [Example 61]

Ki [1]: 158 nM
Ki [2]: 47 nM
Compound: COc1ccc(C(=O)Nc2ccc(F)c([C@@]3(C)NC(=N)N(C)S(=O)(=O)[C@]34CCN(Cc3cocn3)C4)c2)nc1 [Example 18]

Ki [1]: 24 nM
Ki [2]: 12 nM
Compound: COc1ccc(C(=O)Nc2ccc(F)c([C@@]3(C)NC(=N)N(C)S(=O)(=O)[C@]34CCN(S(=O)(=O)c3ccccc3)C4)c2)nc1 [Example 63]

Ki [1]: 61 nM
Ki [2]: 73 nM
Compound: CCCCN1CC[C@]2(C1)[C@@](C)(c1cc(NC(=O)c3ccc(F)cn3)ccc1F)NC(=N)N(C)S2(=O)=O [Example 52]

Ki [1]: 128 nM
Ki [2]: 34 nM
Compound: COc1ccc(C(=O)Nc2ccc(F)c([C@@]3(C)NC(=N)N(C)S(=O)(=O)[C@]34CCN(CC3CC3)C4)c2)nc1 [Example 24]

Ki [1]: 4.5 nM
Ki [2]: 3.4 nM
Compound: CN1C(=N)N[C@](C)(c2cc(NC(=O)c3ccc(F)cn3)ccc2F)C2(CCN(Cc3ccccc3)C2)S1(=O)=O (stereo partly drawn) [Example 1]

Ki [1]: 237 nM
Ki [2]: 28 nM
Compound: COc1ccc(C(=O)Nc2ccc(F)c([C@@]3(C)NC(=N)N(C)S(=O)(=O)[C@]34CCN(Cc3cnco3)C4)c2)nc1 [Example 28]

Ki [1]: 184 nM
Ki [2]: 151 nM
Compound: CN1C(=N)N[C@](C)(c2cc(NC(=O)c3ccc(F)cn3)ccc2F)[C@@]2(CCN(Cc3cnn(C)c3)C2)S1(=O)=O [Example 51]

Ki [1]: 70 nM
Ki [2]: 20 nM
Compound: COc1ccc(C(=O)Nc2ccc(F)c([C@@]3(C)NC(=N)N(C)S(=O)(=O)[C@]34CCN(Cc3cscn3)C4)c2)nc1 [Example 19]

Ki [1]: 329 nM
Ki [2]: 51 nM
Compound: COc1ccc(C(=O)Nc2ccc(F)c([C@@]3(C)NC(=N)N(C)S(=O)(=O)[C@]34CCN(Cc3cncnc3)C4)c2)nc1 [Example 26]

Ki [1]: 16 nM
Ki [2]: 3 nM
Compound: COc1ccc(C(=O)Nc2ccc(F)c([C@@]3(C)NC(=N)N(C)S(=O)(=O)[C@@]34CCN(S(=O)(=O)c3ccccc3)C4)c2)nc1 [Example 59]

Ki [1]: 99 nM
Ki [2]: 28 nM
Compound: COc1ccc(C(=O)Nc2ccc(F)c([C@@]3(C)NC(=N)N(C)S(=O)(=O)[C@]34CCN(S(=O)(=O)CC(F)(F)F)C4)c2)nc1 [Example 72]

Ki [1]: 40 nM
Ki [2]: 54 nM
Compound: CN1C(=N)N[C@](C)(c2cc(NC(=O)c3ccc(F)cn3)ccc2F)[C@@]2(CCN(Cc3cccnc3)C2)S1(=O)=O [Example 46]
